Assay [1] relates to human breast cancer cell line T47D (estrogen receptor positive). Kind of assay: In vitro cytotoxicity assay (CCK-8), T47D. Format: cell-based. The conditions noted are these: T47D cells, 48 hours incubation, read-out: 50% inhibition of cell growth concentration (IC50). An excerpt:
(§1) Materials: DMEM (medium), RPMI (medium), L-glutamine, penicillin, streptomycin and FBS (fetal bovine serum) were obtained from Gibco (NY, USA). Culture plasticware was purchased from Corning (MA, USA). […] All other chemicals used were of reagent grade and were purchased from Sigma or E. Merck (Germany).
(§2) Cell lines and cell cultures: The human breast cancer cell lines T47D and MDA-MB231 were obtained from American Type Culture Collection (ATCC). Of both cancer cells, T47D is estrogen receptor positive, and MDA-MB231 is estrogen receptor negative. Cells were cultured at 37° C. in RPMI medium containing 10% charcoal-dextran stripped fetal bovine serum for T47D cells and in DMEM medium containing 10% charcoal-dextran stripped fetal bovine serum for MDA-MB231 cells with 5% CO2. The cell proliferation was determined by counting the viable cells with trypan blue exclusion.
(§3) Cytotoxicity assay: Dispense 198 μl of cell suspension (20,000 cells for T47D per well and 10,000 cell for MDA-MB231 per well) in a 96-well plate and pre-incubate the plate for 24 hours in an incubator at 37° C. with humidified 5% CO2. […] After plate was incubated for 48 hours in the incubator, media were aspirated of and new media (100 μl) were added and incubated for 1 more hour. […] Measure the absorbance at 450 nm using a ELISA reader.

The subject of assay [2] is human breast cancer cell line MDA-MB231 (estrogen receptor negative). Kind of assay: In vitro cytotoxicity assay (CCK-8), MDA-MB231. Format: cell-based. The conditions noted are these: MDA-MB-231, MDA-MB231 cells, 48 hours incubation, read-out: 50% inhibition of cell growth concentration (IC50).
Text: as §1, §2, §3

For assay [3], the system named is ovariectomized female Wistar rats (osteoporosis caused by estrogen deficiency). The experiment in a line: Ovariectomized rat osteoporosis model, apparent bone density of tibia. Format: in vivo. Conditions: two months, mean value, OVX group 1.549, Sham 1.589. An excerpt: The purpose of this example is to show the potency of bakuchiol in treating osteoporosis, wherein ovary of a female rat is removed to stimulate osteoporosis caused by estrogen deficiency.
The female Wistar rats of 16 weeks old (unless specified in the other experiment description) were obtained from the stock reared by the Animal breeding center, National Scientific Council in Taipei. These rats were grouped by weights matched in order to distribute the physiological response variation from rats evenly into each group. These rats were grouping as follows: • Baseline group fed with no drug added food (n=8) • Sham operation group fed with no drug added food (Sham) (n=10) • Ovariectomy operation group fed with no drug added food (OVX) (n=8) • Ovariectomy operation group fed with Drug A (5 mg/kg) added food (OVX+A) (n=9) • Ovariectomy operation group fed with Drug B (15 mg/kg) added food (OVX+B) (n=9)
Ovariectomy (removal of ovaries) operation: Ovariectomy was induced using a protocol similar to that described by Wronski et al (Wronski et al, Endocrinology, 123(2), 681-86 (1988)). […]
The whole tibia and femur were stripped off attached muscles and ligaments after sacrifice. […] The weight of bone measured in the air was marked as W-air. […] The apparent bone density was calculated as [W-air/(W-air minus W-water)] […]

Assay [4] shares this test system. Kind of assay: Ovariectomized rat osteoporosis model, bone histomorphometry of proximal tibia. It is filed as in vivo. Conditions: two months, mean value; for Erosion surface (ES/BS, %) of proximal tibia: OVX group 5.8%, Sham 4.7%; for Bone volume % (BV/TV) of proximal tibia head trabecular bone: OVX group 12.50%, Sham 29.50%. An excerpt: The purpose of this example is to show the potency of bakuchiol in treating osteoporosis, wherein ovary of a female rat is removed to stimulate osteoporosis caused by estrogen deficiency. The female Wistar rats of 16 weeks old (unless specified in the other experiment description) were obtained from the stock reared by the Animal breeding center, National Scientific Council in Taipei. These rats were grouped by weights matched in order to distribute the physiological response variation from rats evenly into each group. These rats were grouping as follows: • Baseline group fed with no drug added food (n=8) • Sham operation group fed with no drug added food (Sham) (n=10) • Ovariectomy operation group fed with no drug added food (OVX) (n=8) • Ovariectomy operation group fed with Drug A (5 mg/kg) added food (OVX+A) (n=9) • Ovariectomy operation group fed with Drug B (15 mg/kg) added food (OVX+B) (n=9) Ovariectomy (removal of ovaries) operation: Ovariectomy was induced using a protocol similar to that described by Wronski et al (Wronski et al, Endocrinology, 123(2), 681-86 (1988)). During the experiments, the rats were housed in hanging grid cages in groups of two at 21° C. with a 12 hours dark cycle. Food (Rat-mouse diet III, adequate in 1% of calcium content and 1.2% of phosphate content, Purina, USA) was administered by paired feeding between the experimental and control groups. Pair-feeding was carried out by calculating the average amount of food intake in the Sham group. So give the same amount of food to the OVX, OVX+A (5 mg/kg), OVX+B (15 mg/kg) group animals the following day. These animals were fed with a period of two months except for the baseline group which were killed on the very day of doing ovariectomy or sham operation. Rats of OVX+A and OVX+B groups were fed with the usual food chuck but added certain amount of compound A and B in it respectively. Water was given ad libitum to all rats. The test drug was weighted according to dose of 5 mg/kg and 15 mg/kg, and added into the ususal food chuck powder and mixed with 10% starch paste. After fully mixed, these chuck powder were made into mass manually and dried by air flow oven. The food with added drug to rats was performed by single blind method. These labeling and bone histomorphometry assessment were done based on standard procedure in bone research (Lin et al, Calcif. Tissue Int., 67, 373-377 (2000)). Specimen were prestained with Villanueva bone stain, then […] and embedded in London resin. Undecalcified sections of 7 μm thick were cut using Jung-K microtome (Leica Ltd, USA) and treated with Villanueva stain for observation under light microscopy. Seven μm thick unstained sections were prepared for fluorescent microscopy and assessed with program Osteomeasure (3.0 version, Atlanta, USA). […]

Assay [5] has as its system five different human cancer cells: lung (A549), ovary (SK-OV-3), skin (SK-MEL-2), central nervous system (XF498), large intestine (HCT). The conditions noted are these: five human cancer cells A549, SK-OV-3, SK-MEL-2, XF498, HCT; Arch. Pharm. Res. 15, 356-359 (1992); cited from earlier work.
The mark [6] stands for this setting: OVX + B group, 15 mg/kg in food.

These results are taken from US20050256208A1, “Pharmaceutical composition containing bakuchiol for treating woman breast cancer” (Sinphar Pharmaceutical Co., Ltd., priority 2004, published 2005).

The structures appear in SMILES notation. In brackets after ≈: the same amount, converted by molar mass.

Turning to `C=C[C@@](C)(/C=C/c1ccc(O)cc1)CCC=C(C)C` [Bakuchiol, bakuchiol], the IC50 in assay [1] stood at 5 µg/mL (≈ 19.5 µM); in assay [2] it was 0.62 µg/mL (≈ 2.42 µM). The “Bone apparent density of tibia” value is reported as 1.582 gm/cm^3 in assay [3] (OVX + A group, 5 mg/kg in food) and 1.587 gm/cm^3 in assay [3] (setting [6]). For the same compound, the “Erosion surface (ES/BS, %) of proximal tibia” value was 5.0% in assay [4] (OVX + A group, 5 mg/kg in food) and 4.8% in assay [4] (setting [6]). Besides, the “Bone volume % (BV/TV) of proximal tibia head trabecular bone” value in assay [4] (OVX + A group, 5 mg/kg in food) came to 19.80%; in assay [4] (setting [6]), 20.11%. In addition, in assay [5], the “average inhibitory concentration (IC50)” value is 10˜15 μg/cc.
